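Grown in 96-well plates, cells were treated for 48 hours with each compound at five concentrations. Insufficient inhibition: endpoint recorded as highest concentration tested. TGI is the concentration that stops growth completely.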

Some test systems named below: OVCAR-5 ovarian; MDA-N; HCC-2998 colon; SK-OV-3 ovarian; EKVX NSCLC; MDA-MB-435; A549 NSCLC; DU-145 prostate; HCT-15 colon; TK-10 renal; NCI-H226 lung; HOP-92 NSCLC; RPMI-8226 leukemia; M14 melanoma; HS 578T breast; SK-MEL-5 melanoma.
What all share (test): NCI anticancer screen, dose series, 48 h

`O=c1[nH]c2cccc([N+](=O)[O-])c2c(=O)n1-c1ccc(Cl)cc1`: the TGI with OVCAR-5 ovarian was 36.5 µM; with MDA-N it was 26.6 µM; in the experiment with HCC-2998 colon it was 31.4 µM; with SK-OV-3 ovarian it was 28 µM; in the experiment on EKVX NSCLC it was 28 µM; in the experiment with MDA-MB-435, 25.5 µM. Also, the TGI in the experiment with A549 NSCLC is 36.3 µM; in the experiment with DU-145 prostate it was 41.1 µM; with HCT-15 colon, 30.2 µM; with TK-10 renal, 39 µM; in the experiment with NCI-H226 lung it was 30.1 µM; in the experiment on HOP-92 NSCLC, 47.9 µM. Moreover, the TGI in the experiment on RPMI-8226 leukemia was 36.1 µM; in the experiment on M14 melanoma it was 29.2 µM; with HS 578T breast, 42 µM; with SK-MEL-5 melanoma it was 24 µM.
For the compound `COC(=O)c1ccccc1/C=C1\Cc2c(ccc3c2CCC3)C1=O`, the TGI in the experiment with OVCAR-5 ovarian, in the experiment with MDA-N, in the experiment on HCC-2998 colon, in the experiment on EKVX NSCLC, in the experiment on MDA-MB-435 and in the experiment with A549 NSCLC was over 100 µM in each case. Besides, the TGI in the experiment on DU-145 prostate, in the experiment on HCT-15 colon, in the experiment on TK-10 renal, in the experiment with NCI-H226 lung, in the experiment with HOP-92 NSCLC and with RPMI-8226 leukemia was over 100 µM each time. In addition, the TGI in the experiment on M14 melanoma, with HS 578T breast and with SK-MEL-5 melanoma was over 100 µM each time.
As for `C=CCN1C(=O)/C(=C/c2ccc(Cl)cc2)N=C1SC/C=C/C`, the TGI with OVCAR-5 ovarian, with MDA-N, in the experiment with HCC-2998 colon, with SK-OV-3 ovarian, with EKVX NSCLC and with MDA-MB-435 was over 100 µM each time. The TGI was over 100 µM in the experiment with A549 NSCLC; over 100 µM in the experiment on DU-145 prostate; over 100 µM in the experiment with HCT-15 colon; over 100 µM with TK-10 renal; over 100 µM in the experiment on NCI-H226 lung; 84.2 µM with HOP-92 NSCLC. Moreover, the TGI is 47.3 µM with RPMI-8226 leukemia, over 100 µM with M14 melanoma, over 100 µM with HS 578T breast and 82 µM in the experiment on SK-MEL-5 melanoma.
With `COC(=O)/C(C)=N/NC(=S)SC`, the TGI in the experiment with OVCAR-5 ovarian, in the experiment on MDA-N, in the experiment on HCC-2998 colon, in the experiment on SK-OV-3 ovarian, in the experiment on EKVX NSCLC and in the experiment with MDA-MB-435 was over 100 µM each time. The TGI with DU-145 prostate, in the experiment with HCT-15 colon, in the experiment with TK-10 renal, in the experiment on NCI-H226 lung, in the experiment with HOP-92 NSCLC and in the experiment with RPMI-8226 leukemia was over 100 µM each time. The TGI with M14 melanoma is 57 µM; with HS 578T breast it was over 100 µM; with SK-MEL-5 melanoma, over 100 µM.
Consider `COc1cc2c(cc1OCCCNC(=O)c1cc3ccccc3[nH]1)N=C[C@@H]1CCCN1C2=O`, for which the TGI is over 33.3 µM with OVCAR-5 ovarian; 1.87 µM in the experiment with MDA-N; 10.5 µM with HCC-2998 colon; over 60.2 µM in the experiment with SK-OV-3 ovarian; 5.68 µM in the experiment on EKVX NSCLC; 0.716 µM in the experiment on MDA-MB-435. The TGI is over 100 µM in the experiment with A549 NSCLC; over 34.3 µM in the experiment on DU-145 prostate; over 26.9 µM in the experiment on HCT-15 colon; over 47.5 µM with TK-10 renal; 2.96 µM in the experiment with NCI-H226 lung; over 100 µM in the experiment with HOP-92 NSCLC. The TGI in the experiment with RPMI-8226 leukemia was over 100 µM; in the experiment with M14 melanoma, 1.15 µM; in the experiment on HS 578T breast it was 0.562 µM; with SK-MEL-5 melanoma it was 0.297 µM.
Turning to `CCSc1nnc(Sc2c3ccccc3nc3ccccc23)s1`, the TGI with OVCAR-5 ovarian was 43.4 µM; in the experiment with MDA-N it was 25.1 µM; with HCC-2998 colon, 25.3 µM; in the experiment with SK-OV-3 ovarian, over 100 µM; in the experiment on EKVX NSCLC it was 16.7 µM; in the experiment on MDA-MB-435, over 61.8 µM. Moreover, the TGI was over 100 µM with A549 NSCLC; 30.2 µM in the experiment with DU-145 prostate; 13.3 µM with HCT-15 colon; 15.8 µM in the experiment with TK-10 renal; over 78.9 µM in the experiment on NCI-H226 lung; over 44.8 µM with HOP-92 NSCLC. Also, the TGI was over 28 µM in the experiment on RPMI-8226 leukemia, 32.1 µM in the experiment with M14 melanoma, over 100 µM in the experiment with HS 578T breast and 38.6 µM in the experiment with SK-MEL-5 melanoma.
Regarding `O=C(CC(O)(C(F)(F)F)C(F)(F)F)C(c1ccccc1)C(O)(C(F)(F)F)C(F)(F)F` (configuration not stated), the TGI was over 100 µM with OVCAR-5 ovarian; over 100 µM in the experiment with MDA-N; over 100 µM with HCC-2998 colon; 88.8 µM with SK-OV-3 ovarian; over 100 µM in the experiment with EKVX NSCLC; over 100 µM in the experiment on MDA-MB-435. The TGI is over 100 µM in the experiment on A549 NSCLC; over 100 µM in the experiment on DU-145 prostate; over 100 µM with HCT-15 colon; over 100 µM with TK-10 renal; over 100 µM in the experiment on NCI-H226 lung; 13 µM with HOP-92 NSCLC. In addition, the TGI was over 100 µM with RPMI-8226 leukemia, over 100 µM in the experiment on M14 melanoma, 41.8 µM with HS 578T breast and over 100 µM in the experiment with SK-MEL-5 melanoma.
Consider `CCOc1cccc(C=Nc2ccccc2SSc2ccccc2N=Cc2cccc(OCC)c2O)c1O`, for which the TGI in the experiment with OVCAR-5 ovarian came to 14.6 µM; in the experiment on MDA-N, 37.7 µM; in the experiment with HCC-2998 colon, 44.1 µM; with SK-OV-3 ovarian, 52 µM; in the experiment on EKVX NSCLC, 19 µM; in the experiment on MDA-MB-435, 23.7 µM. Besides, the TGI turned out to be 26.6 µM in the experiment on A549 NSCLC; 30.9 µM with DU-145 prostate; 12.9 µM with HCT-15 colon; 51.4 µM in the experiment with TK-10 renal; 22.5 µM with NCI-H226 lung; 33.3 µM with HOP-92 NSCLC. Also, the TGI in the experiment on RPMI-8226 leukemia was determined as 35.9 µM; in the experiment on M14 melanoma it was 19.4 µM; in the experiment on HS 578T breast, 90.7 µM; with SK-MEL-5 melanoma it was 7.58 µM.
Regarding `C/C(Cl)=N/OC(=O)Nc1ccc(F)c([N+](=O)[O-])c1`, the TGI with OVCAR-5 ovarian is over 53.4 µM; in the experiment on MDA-N, 35.1 µM; in the experiment with HCC-2998 colon it was over 100 µM; in the experiment with SK-OV-3 ovarian it was 45 µM; in the experiment on EKVX NSCLC it was 33.1 µM; in the experiment with MDA-MB-435, 30.8 µM. Also, the TGI in the experiment on A549 NSCLC was over 58.7 µM; in the experiment with DU-145 prostate, 33 µM; in the experiment on HCT-15 colon, 12.6 µM; with TK-10 renal, 13.2 µM; with NCI-H226 lung, 70.1 µM; in the experiment on HOP-92 NSCLC, over 72.5 µM. In addition, the TGI in the experiment on RPMI-8226 leukemia is over 25.7 µM; in the experiment on M14 melanoma it was over 48 µM; in the experiment on HS 578T breast, 16.4 µM; with SK-MEL-5 melanoma it was 29.2 µM.

The record behind these values is PubChem BioAssay (NCI).
